Source: patent publication US20120282676A1, “Compositions and Methods for Enhancing Lipid Production in Marine Microalgae” (Old Queens, priority 2011, published 2012)

Experiments:
[1] = test system: Phaeodactylum tricornutum; experiment: Growth of P. tricornutum cultures in different nitrogen regimes (cell densities, Coulter counter); format: cell-based; conditions: relative to the control (NO3+Mo)
Protocol: This was also the reason to perform all experiments in artificial medium. […] During the period of acclimation the cultures were maintained at 18° C., under continuous light using liner cool fluorescent lamps emitting white light at 300 μmol quanta·m^-2·s^-1, and 0.2 μm filtered air bubbling. Periodic dilutions with fresh media were also executed to main the cells in exponential phase of growth. […] The light intensity and temperature were maintained as described above. After 3 days (72 h) of growth samples were collected and processed for further analyses (described bellow). Experiments were performed at least in triplicate. The cellular densities were monitored with a Coulter counter multisizer 3 (Beckman Coulter Inc, Fullerton, Calif., USA).

[2] = test system: Phaeodactylum tricornutum; conditions: preliminary LC-MS analyses, FIG. 6
Text: FIG. 6. Liquid-chromatography mass-spectrometry (LC-MS) plot representing the relative content of triacylglycerides (TAG) species between cells growing with nitrate or ammonium as nitrogen sources. Total lipids from P. tricronutum cells growing with nitrate or ammonium as nitrogen source (from the experiments described in the main text) were extracted with the Bligh-Dyer method (Bligh and Dyer) and analysed by liquid-chromatography mass-spectrometry (LC-MS).

[3] = test system: nitrate reductase (NR) protein; experiment: NR western-blot; format: cell-based, Phaeodactylum tricornutum; conditions: FIG. 2
Protocol: Protein concentrations were determined with the bicinchoninic acid method (BCA, Pierce). […] Blots were probed for 1 h with anti-NR assimilatory (1:500) purchased from Agrisera (part no. AS08-310). Subsequently, an HRP-conjugated polyclonal goat anti-rabbit IgC antibody (Pierce, 1:10000) was used followed by chemifluorescence detection (Amersham™ ECL Plus, RPN2132). Image acquisition was performed with a molecular imager XR+ system (BIORAD, USA).

[4] = test system: Phaeodactylum tricornutum; experiment: Lipid body imaging (BODIPY, epifluorescence microscopy); format: cell-based; conditions: BODIPY staining, FIG. 4
Protocol: Intracellular lipid bodies were stained with 10 μg·ml^-1 BODIPY (4,4-difluoro-3a, 4a-diaza-s-indacene) probe (D-3922, Molecular Probes, Invitrogen, USA). Cells were subsequently observed with an inverted epifluorescence microscope Olympus IX71 (Olympus, Japan) equipped with a mercury X-CITE 120 lamp (EXFO, Canada), using the 482/536 nm excitation/emission filter. Images were acquired with a […] high-speed monochromatic cooled CCD camera system and IPLab for Mac (v3.9) for image processing and analysis.

[5] = test system: Phaeodactylum tricornutum; experiment: Fatty acids extraction and analysis (FAME, GC-FID); format: cell-based; conditions: for more fatty acid per cell than the control: relative to NO3− replete cells (control)
Protocol: Fatty acid methyl esters (FAME) extraction and methylation was based on a method developed by Rodriguez-Ruiz et al., 1998. […] The vials were sealed with a Teflon-lined cap and boiled in a water-bath for 1 h. After incubation the vials were cooled to room temperature and 1 ml of milliQ water was added to each sample. Samples were vortexed and centrifuged (5 min, 3000 rpm) to allow phase separation and the top […] phases were transferred with glass-pipettes to GC vials with Teflon-lined caps (Fisher Scientific). FAME analyses were performed in a gas-chromatographer (GC 2010 Shimadzu, Japan) equipped with a TR-FAME (0.25 μm×60 m) column (Thermo electron corporation, USA) and a flame ionization detector (FID). Helium was used as the carrier gas at 26 psi. The injector and detector temperatures were 240° C. and 250° C. respectively. The time-oven temperature program was: 140° C. (5 min) increasing up to 240° C. at 4° C.·min^-1. FAMEs were identified by reference to authentic standards (SupelcoTM 37 component FAME, Sigma-Aldrich) processed and analyzed under the same conditions.

[6] = test system: Selenastrum capricornutum; conditions: sodium tungsten in small concentration (≦400 μM); Strigul et al. 2009; cited from earlier work
[7] = test system: Phaeodactylum tricornutum; experiment: Metabolite profiling (LC-MS/MS); format: cell-based; conditions: W-mediated NR inactivation of NO3− grown cells
Protocol: Metabolite profiles were obtained via the method described by Bennette et al. (2010). Cells were quenched via rapid filtration of 14.3 million cells followed by immediate transfer of filters to 1.8 mL of 80:20 methanol:water at −20° C. in 35×10 mm Petri dishes. Filters were incubated at −20° C. for 15 minutes and scraped clean of cells in the extraction solvent. The 1.8 mL of extraction solvent with cells was transferred to 2 mL eppendorf tubes, followed by a 0.25 mL 80:20 methanol:water at −20° C. wash of the filter to collect remaining quenched cell material. The eppendorf tubes were spun at 4° C., and supernatant was collected. To the cell pellet, 100 μL 80:20 methanol:water at −20° C. was added, vortexed, incubated at −20° C. for 15 minutes, and pelletted. The 100 μL was combined with the original supernatant, and 50 μL transferred to GC vials. […] Standards for each metabolite, run with sample background, were used for quantification. The column used was a Synergi 2.5μ hydro RP 100A, size 100×2 mm (Phenomonex, Torrance, Calif., USA).

SMILES	decrease of growth rate [1]	more total fatty acid than with NO3− (Dunaliella terciolecta; D. terciolecta, NH4+ as nitrogen source)	TAG species relative to NO3− grown cells [2]	NR protein band (approximately 100 kDa) in western-blot [3]	number of lipid bodies per cell [4]	more fatty acid per cell than the control ([5]; 3 days)	average growth rate (Dunaliella terciolecta; D. terciolecta, W in conjunction with NH4+)	more fatty acid per unit volume than nitrate-grown cultures (Dunaliella terciolecta; D. terciolecta, W in conjunction with NH4+, after 3 days, FIG. 7)	higher rates of lipid production per unit biomass than in controlled conditions (Dunaliella terciolecta; tungsten in combination with ammonium, organism not given)	effect on growth [6]	glutamate and glutamine levels, share of control levels [7]	Fatty acids cell^−1 (total fatty acid) ([5]; P. tricornutum, 3 days, mean ± SD, n ≧ 3)	higher rate of fatty acid accumulated per unit volume ([5]; W added to NH4+ growing cultures, compared to all the other situations, FIG. 1B)
Cl.N [NH4+, NH4Cl]	10%	13%	all TAG species of P. tricornutum NH4+ grown cells increase	weak band	very high numbers	≥ 40%							
[Na+].[Na+].[O]=[W](=[O])([O-])[O-] [W, sodium tungsten]						40%	increased the average growth rate	88%	87%	stimulated growth	about 10%	3.99 ± 0.24 pg	over 30%
